Experimental data taken from PMC10950897, “VCF1 is a p97/VCP cofactor promoting recognition of ubiquitylated p97-UFD1-NPL4 substrates” (Nature Communications, 2024).

Test system: p97-UFD1-NPL4
Test: Analytical gel filtration
Assay type: binding, human
Conditions: equimolar p97, UFD1-NPL4, VCF1 (5 µM), pH 7.4
Protocol: For analytical gel filtration, p97 alone (5 µM hexamer), or p97 (5 µM hexamer) with UFD1-NPL4 (5 µM) and VCF1 (5 µM) were mixed in a total volume of 25 µl in SEC buffer (50 mM HEPES, pH 7.4; 150 mM NaCl). Samples were separated by size exclusion chromatography on a Superose 6 3.2/300 column (Cytiva) equilibrated in SEC buffer using an ÄKTA Purifier 10 FPLC system (GE Healthcare). After the column dead volume (0.35 column volumes), fractions were collected (120 µl) and analyzed by immunoblotting.

VCF1: human FAM104A isoform 1, 186 amino acids (UniProt Q969W3); recombinant Strep-HA-tagged
comigration in size-exclusion chromatography: comigration of the p97-VCF1-UFD1-NPL4 complex
